Laboratory results from doi:10.1101/2024.12.03.626679, “Structure of the SMYD2-PARP1 Complex Reveals Both Productive and Allosteric Modes of Peptide Binding” (bioRxiv, 2024).
No end group written: not given here.

Tests used:
PARP1(518–1014) = assay: Methyltransferase activity of SMYD2 proteins on PARP1(518–1014), MTase-Glo assay; assay type: biochemical, human; settings: versus wild-type SMYD2
Procedure: Steady-state enzyme kinetics was carried out using the MTase-Glo methyltransferase assay according to the manufacturer’s instructions (Promega). […] After incubating the reactions with the MTase-Glo reagent and MTase-Glo Detection Solution, the amount of produced AdoHcy was determined by measuring luminescent signals using a microplate reader. The reactions were quantified using an AdoHcy standard curve that correlates the luminescence intensity to the AdoHcy concentration. Enzyme kinetic constants (KM, kcat, and Hill coefficient) were determined using initial velocity measurements at varying substrate concentrations by fitting them to a standard Michaelis-Menten kinetics model and the Hill equation.

histone H3 = assay: Antibody-based methyltransferase assay on H3; assay type: biochemical; settings: versus wild-type SMYD2; 30°C overnight, Western blot
Procedure: (§1) An antibody-based methyltransferase assay was carried out similarly to a previously described method ([29]). Reactions were performed by incubating SMYD2 proteins with H3 or H4 in the presence of AdoMet at 30°C overnight in a reaction buffer containing 50 mM Tris pH 8.5, 25 mM NaCl, 5% glycerol, and 2 mM DTT. Lysine methylation was detected by Western blot analysis using antibodies against mono-, di-, and trimethylated lysine (ab23366 & ab76118, Abcam). Enzymatic activities were quantified based on chemiluminescence using a CCD gel imager.

histone H4 = assay: Antibody-based methyltransferase assay on H4; assay type: biochemical; settings: versus wild-type SMYD2; 30°C overnight, Western blot
Procedure: as §1

[1] = molecular target: T1, SMYD2-F184A / PARP1(518–1014) interaction (Homo sapiens, UniProt Q9NRG4, F184A); assay: ELISA inhibition of SMYD2-PARP1(518–1014) interaction by PARP1 peptide, F184A mutant; settings: SMYD2 pre-incubated with peptide, four-parameter logistic fit, triplicate, read-out: IC50 of inhibition of F184A mutant binding to coated PARP1 protein
T1 construct: Full-length human SMYD2 (residues 1–433) (SMYD2-WT); 6xHis-SUMO (N, cleaved yes); made in house
Procedure: ELISA solid-phase protein binding experiments were performed according to the previously described protocol ([22]). ELISA plates were prepared by coating PARP1, H3, or H4 onto the wells in a coating buffer containing 10 mM HEPES pH 7.5, 0.1 M KCl, and 3 mM MgCl2. After blocking the plates with 1% BSA, binding experiments were performed by adding different concentrations of SMYD2 proteins into the wells. For PARP1 peptide inhibition experiments, SMYD2 proteins were pre-incubated with the PARP1 peptide before being added to the wells. Bound SMYD2 proteins were probed with the anti-SMYD2 antibody (ab108217, Abcam), and the amount of binding was quantified using an HRP-conjugated secondary antibody (ab6721, Abcam) that generated a color signal from oxidizing the substrate 2,2′-azino-bis(3-ethylbenzthiazoline sulfonic acid). The absorbance of signals was measured at 420 nm using a microplate reader at 2-minute intervals for 15 minutes. The rate of change in absorbance obtained by linear regression was used to quantify the binding. IC50 and the concentration required for 50% saturation were obtained by fitting binding data using a four-parameter logistic regression model. For reciprocal binding experiments, SMYD2 proteins were coated onto the wells and bound PARP1 was detected by the anti-PARP1 antibody (ab191217, Abcam). All binding experiments were performed in triplicate.

T1 sequence (Q9NRG4 whole entry F184A, the tested form may be a part): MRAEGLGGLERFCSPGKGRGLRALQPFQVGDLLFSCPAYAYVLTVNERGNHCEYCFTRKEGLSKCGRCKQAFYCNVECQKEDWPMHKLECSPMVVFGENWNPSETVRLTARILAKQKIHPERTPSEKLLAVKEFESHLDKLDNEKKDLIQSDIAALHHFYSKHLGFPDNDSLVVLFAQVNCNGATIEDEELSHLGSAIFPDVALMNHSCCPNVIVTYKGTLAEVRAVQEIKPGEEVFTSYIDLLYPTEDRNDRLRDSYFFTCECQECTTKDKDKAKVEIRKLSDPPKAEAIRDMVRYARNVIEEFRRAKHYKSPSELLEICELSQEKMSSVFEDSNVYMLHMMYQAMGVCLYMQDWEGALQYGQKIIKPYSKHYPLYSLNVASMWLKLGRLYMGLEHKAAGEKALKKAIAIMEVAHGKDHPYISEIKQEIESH

“F184A mutant: SMYD2 mutant targeting the target lysine access channel at the active site” was tested, and the “methylation level of PARP1 protein” value (PARP1(518–1014)) was “abolishes the methyltransferase activity”, the “methylation of H3” value (histone H3) was “abolishes the methyltransferase activity” and the “methylation of H4” value (histone H4) was “abolishes the methyltransferase activity”.

With “L351A/W356A mutant: SMYD2 secondary-binding-site mutant targeting both subsites M and L” the “methylation level of PARP1 protein” value (PARP1(518–1014)) was “notable increase”, the “methylation of H3” value (histone H3) was “marked increase” and the “methylation of H4” value (histone H4) was “marked increase”.

Substance RMKLTLKGGAAVD [PARP1 peptide] has an IC50 [1] of about 153 nM.
